The target of experiment [1] is Sodium/hydrogen exchanger 1 (Homo sapiens, UniProt P19634). As to the kind of experiment: Inhibition of human NHE1 expressed in PS120 cells assessed as imposed acidosis. The class given is cell-based.
The subject of experiment [2] is Heart. As to the kind of experiment: Cardioprotective activity in Langendorff perfused rat heart assessed as recovery of rate pressure product at 10 uM treated 10 mins before global ischemia challenge for 30 mins followed by 30 mins of reperfusion. In kind it is functional.
Experiment [3] concerns Heart. The experiment is described as follows: Cardioprotective activity in Langendorff perfused rat heart assessed as left ventricular end diastolic pressure at 10 uM treated 10 mins before global ischemia challenge for 30 mins followed by 30 mins of reperfusion. The class given is functional.
The subject of experiment [4] is Rattus norvegicus. The experiment is described as follows: Cardioprotective activity in Langendorff perfused rat myocardial infarction model assessed as ratio of myocardial infarction size to area at risk at 0.1 mg/kg, iv administered 5 mins before onset ischemia challenge followed by 90 mins reperfusion. In kind it is functional, Myocardium.

IC50 and Activity data for 38 compounds are collected here from ChEMBL document CHEMBL1153272, “(2-Aryl-5-methylimidazol-4-ylcarbonyl)guanidines and (2-aryl-5-methyloxazol-4-ylcarbonyl)guanidines as NHE-1 inhibitors” (Bioorg Med Chem Lett, 2009).

Each structure is given as a SMILES string.

Sodium/hydrogen exchanger 1, sequence (P19634 whole entry, the tested form may be a part): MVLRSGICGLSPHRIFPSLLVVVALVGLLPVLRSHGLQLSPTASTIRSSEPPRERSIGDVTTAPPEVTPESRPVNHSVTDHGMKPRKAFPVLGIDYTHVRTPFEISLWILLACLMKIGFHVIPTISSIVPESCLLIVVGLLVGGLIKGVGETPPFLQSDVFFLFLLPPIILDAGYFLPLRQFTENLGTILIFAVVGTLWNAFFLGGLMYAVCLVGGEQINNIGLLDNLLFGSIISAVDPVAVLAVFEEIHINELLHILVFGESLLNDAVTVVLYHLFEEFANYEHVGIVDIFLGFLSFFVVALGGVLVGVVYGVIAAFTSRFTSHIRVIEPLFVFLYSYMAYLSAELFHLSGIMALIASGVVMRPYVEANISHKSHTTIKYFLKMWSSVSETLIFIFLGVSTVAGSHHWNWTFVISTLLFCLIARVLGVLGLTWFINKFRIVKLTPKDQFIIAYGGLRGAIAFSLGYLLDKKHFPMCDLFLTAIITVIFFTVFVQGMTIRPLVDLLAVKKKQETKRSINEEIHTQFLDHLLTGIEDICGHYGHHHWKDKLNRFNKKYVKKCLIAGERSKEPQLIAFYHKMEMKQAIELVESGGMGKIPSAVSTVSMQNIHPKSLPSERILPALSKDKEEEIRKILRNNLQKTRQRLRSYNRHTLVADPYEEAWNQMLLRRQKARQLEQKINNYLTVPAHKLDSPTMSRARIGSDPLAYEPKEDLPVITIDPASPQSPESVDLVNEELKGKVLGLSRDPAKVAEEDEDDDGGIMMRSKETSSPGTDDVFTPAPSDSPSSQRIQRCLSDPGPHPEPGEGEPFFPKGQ

Take `Cc1[nH]c(-c2cccc(F)c2F)nc1C(=O)N=C(N)N`: the IC50 in experiment [1] was determined as 6.6 µM.
On the same count and under the same terms, for `Cc1oc(-c2cccc(F)c2)nc1C(=O)N=C(N)N` the value was 4.2 µM.
Consider `CS(=O)(=O)O.Cc1oc(-c2cc(Cl)cc(Cl)c2)nc1C(=O)N=C(N)N`, for which, in experiment [1], the IC50 stood at 0.89 µM. In addition, the Activity is reported as 26% in experiment [2] and 25% in experiment [3].
As for `Cc1oc(-c2cc(F)ccc2F)nc1C(=O)N=C(N)N`, the IC50 in experiment [1] amounted to 2.8 µM.
Turning to `Cc1cc(C)cc(-c2nc(C(=O)N=C(N)N)c(C)[nH]2)c1`, the IC50 in experiment [1] came out at 5 µM.
For the compound `CC(C)c1ccc(C(=O)N=C(N)N)cc1S(C)(=O)=O.CS(=O)(=O)O` [CARIPORIDE MESYLATE], the figures for the Activity in experiment [2], in experiment [3] and in experiment [4] were 48%, 22% and 41%, respectively.
On to `COc1ccccc1-c1nc(C(=O)N=C(N)N)c(C)[nH]1`, for which the IC50 in experiment [1] worked out at 3.1 µM.
For `COc1ccc(Cl)cc1-c1nc(C(=O)N=C(N)N)c(C)[nH]1.CS(=O)(=O)O.CS(=O)(=O)O`, the IC50 in experiment [1] was determined as 0.24 µM. Moreover, the Activity worked out at 60% in experiment [2], 28% in experiment [3] and 34% in experiment [4].
Regarding `Cc1[nH]c(-c2cccc(Cl)c2Cl)nc1C(=O)N=C(N)N`, the IC50 in experiment [1] came to 0.5 µM.
In the case of `Cc1[nH]c(-c2cccc(Cl)c2)nc1C(=O)N=C(N)N`, the IC50 in experiment [1] was found to be 4.5 µM.
The same measure, in the same setting: under `Cc1[nH]c(-c2ccc(Cl)cc2)nc1C(=O)N=C(N)N` stands greater than 30 µM; under `Cc1ccccc1-c1nc(C(=O)N=C(N)N)c(C)[nH]1`, 2.4 µM.
For the compound `CS(=O)(=O)O.CS(=O)(=O)O.Cc1ccc(C)c(-c2nc(C(=O)N=C(N)N)c(C)[nH]2)c1`, in experiment [1], the IC50 came out at 1.1 µM. Moreover, the figures for the Activity in experiment [2], in experiment [3] and in experiment [4] were 33%, 32% and 45%, respectively.
As for `Cc1cccc(-c2nc(C(=O)N=C(N)N)c(C)[nH]2)c1`, the IC50 in experiment [1] is 12 µM.
In the case of `COc1cccc(-c2nc(C(=O)N=C(N)N)c(C)[nH]2)c1`, in experiment [1], the half-inhibitory concentration (IC50) worked out at 4.1 µM.
Same read-out and setting: under `Cc1cccc(-c2nc(C(=O)N=C(N)N)c(C)[nH]2)c1C` stands greater than 30 µM; under `Cc1[nH]c(-c2ccccc2)nc1C(=O)N=C(N)N`, 12 µM; under `Cc1[nH]c(-c2ccc(F)cc2)nc1C(=O)N=C(N)N`, greater than 30 µM.
On to `Cc1ccc(-c2nc(C(=O)N=C(N)N)c(C)[nH]2)cc1`, for which the IC50 in experiment [1] is greater than 30 µM.
`CS(=O)(=O)O.Cc1oc(-c2cc(Cl)ccc2Cl)nc1C(=O)N=C(N)N`: the IC50 in experiment [1] stood at 0.072 µM. In addition, the results for the Activity in experiment [2], in experiment [3] and in experiment [4] were 19%, 27% and 39%, respectively.
On to `COc1ccc(F)cc1-c1nc(C(=O)N=C(N)N)c(C)[nH]1.CS(=O)(=O)O.CS(=O)(=O)O`, for which the IC50 in experiment [1] worked out at 0.8 µM. Moreover, the values for the Activity in experiment [2] and in experiment [3] were 27% and 29%, respectively.
With `Cc1[nH]c(-c2cc(F)cc(F)c2)nc1C(=O)N=C(N)N`, the IC50 in experiment [1] was 2.7 µM.
On the same count and under the same terms, for `Cc1[nH]c(-c2cc(F)ccc2F)nc1C(=O)N=C(N)N` the value was 3 µM; for `COc1ccc(-c2nc(C(=O)N=C(N)N)c(C)[nH]2)cc1`, greater than 30 µM; for `Cc1oc(-c2ccccc2)nc1C(=O)N=C(N)N`, 8.2 µM.
As to `CS(=O)(=O)O.CS(=O)(=O)O.Cc1[nH]c(-c2ccccc2Cl)nc1C(=O)N=C(N)N`, the IC50 in experiment [1] was 1.4 µM. Moreover, the Activity is given as 69% in experiment [2], 35% in experiment [3] and 50% in experiment [4].
With `Cc1oc(-c2cc(F)cc(F)c2)nc1C(=O)N=C(N)N`, the IC50 in experiment [1] stood at 3.3 µM.
The same measure, in the same setting: for `Cc1[nH]c(-c2ccccc2F)nc1C(=O)N=C(N)N` the value was 7.2 µM; for `Cc1cc(C)cc(-c2nc(C(=O)N=C(N)N)c(C)o2)c1`, 7.1 µM.
On the same count and under the same terms, for `Cc1[nH]c(-c2cccc(F)c2)nc1C(=O)N=C(N)N` the value was 4.5 µM.
Turning to `CS(=O)(=O)O.Cc1[nH]c(-c2cc(Cl)cc(Cl)c2)nc1C(=O)N=C(N)N`, in experiment [1], the IC50 is 0.52 µM. Moreover, the results for the Activity in experiment [2] and in experiment [3] were 23% and 28%, respectively.
As for `CS(=O)(=O)O.Cc1ccc(C)c(-c2nc(C(=O)N=C(N)N)c(C)o2)c1`, the IC50 in experiment [1] turned out to be 0.22 µM. For the same compound, the Activity in experiment [2] was 59%; in experiment [3], 9%; in experiment [4] it was 47%.
Turning to `COc1cccc(-c2nc(C(=O)N=C(N)N)c(C)[nH]2)c1OC`, the IC50 in experiment [1] is greater than 30 µM.
On the same count and under the same terms, for `Cc1cccc(-c2nc(C(=O)N=C(N)N)c(C)o2)c1` the value was 6.6 µM.
Still for that read-out and setting: under `COc1ccc(-c2nc(C(=O)N=C(N)N)c(C)[nH]2)cc1OC` stands 2.1 µM; under `Cc1oc(-c2cccc(Cl)c2)nc1C(=O)N=C(N)N`, 1.7 µM.
Take `CS(=O)(=O)O.CS(=O)(=O)O.Cc1[nH]c(-c2cc(Cl)ccc2Cl)nc1C(=O)N=C(N)N`: the 50% inhibitory concentration (IC50) in experiment [1] came out at 0.1 µM. Moreover, the results for the Activity in experiment [2], in experiment [3] and in experiment [4] were 59%, 25% and 40%, respectively.
As to `Cc1oc(-c2ccc(Cl)cc2)nc1C(=O)N=C(N)N`, the IC50 in experiment [1] was greater than 30 µM.

As usually defined, the IC50 is the concentration that inhibits the measured activity by half.
